Here are results for 29 compounds from patent US6455587B1 (priority 2000, dated 2002).

One may read the Ki as the equilibrium dissociation constant of an inhibitor or competing ligand from its target.

One experiment deals with T1, recombinant HIV-1 protease (Human immunodeficiency virus type 1 group M subtype B, UniProt P04585).
T1 construct: recombinant HIV-1 protease (final concentration 2.18 nM) purchased from Bachem Bioscience; purchased Bachem Bioscience
Put plainly: Enzymatic fluorometric (FRET) assay for determining the inhibition constant (Ki) against HIV protease. Format: biochemical. The note with it: Ki (nM). The essentials:
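FRET substrate (EDANS/DABCYL) cleavage followed at 31° C., ex 340/em 485 nm. Initial velocity recorded over 4 min, then inhibitor added at several concentrations and rate read another 4 min. Ki derived from v0 and vi via Henderson equation using [S] and Km.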
In the case of `Cc1ccc(S(=O)(=O)N(CC(C)C)C(CCCCN(CC(C)C)C(=O)CCc2ccccc2)C(=O)O)cc1` (racemic) [Compound 159, Nα, Nε-diisobutyl-Nα-(4-methylbenzenesulfonyl)-Nε-(3-phenylpropanoyl)-DL-lysine], the Ki was greater than 300 nM.

Take `CC(C)CN(C(CCCCNC(=O)OCc1ccccc1)C(=O)O)S(=O)(=O)c1ccc(Br)cc1` (centres unmarked) [Compound 67]: the inhibition constant Ki is greater than 100 nM.

The same experiment, now with this note: fluorometric FRET assay, 31° C., pH 4.7, recombinant HIV-1 protease 2.18 nM, substrate 10 μM; read-out: Ki.
Consider `COc1cccc(CCC(=O)NCCCC[C@@H](C(=O)O)N(CC(C)C)S(=O)(=O)c2ccc(C)cc2)c1OC` [Compound 201, Nα-Isobutyl-Nα-(4-methylbenzenesulfonyl)-Nε-(2,3-dimethoxydihydrocinnamoyl)-L-lysine], for which the Ki was 15 nM.

The same experiment, now with this note: fluorometric FRET assay, recombinant HIV-1 protease, pH 4.7, 31° C.; read-out: Ki.
Consider `CC(C)CN([C@@H](CCCCNC(=O)CCc1c[nH]c2ccccc12)C(=O)O)S(=O)(=O)c1ccc(N)cc1` [Compound 98, Nα-Isobutyl-Nα-(4-aminobenzenesulfonyl)-Nε-(3-indolepropionyl)-L-lysine], for which the Ki was 10.1 nM.

Consider “Nα-(4-Chlorobenzenesulfonyl)-Nδ-(9-fluorenylmethoxycarbonyl)-L-ornithine [Compound 74]”, for which the Ki is greater than 25000 nM.

As to `COc1cccc(CCC(=O)NCCCC[C@@H](C(=O)O)N(CC(C)C)S(=O)(=O)c2ccc(N)cc2)c1` [Compound 156, Nα-Isobutyl-Nα-(4-aminobenzenesulfonyl)-Nε-(3-methoxydihydrocinnamoyl)-L-lysine], the Ki came to 16.7 nM.

Consider `O=C(NCCC[C@H](NC(=O)OCC1c2ccccc2-c2ccccc21)C(=O)O)OCC1c2ccccc2-c2ccccc21` [Compound 73, Nα,Nδ-di-(9-Fluorenylmethoxycarbonyl)-L-ornithine], for which the Ki came out at 1300 nM.

For `CC(C)CN(CCC[C@H](NC(=O)OCC1c2ccccc2-c2ccccc21)C(=O)O)S(=O)(=O)c1ccc(Br)cc1` [Compound 41, Nα-(9-Fluorenylmethoxycarbonyl)-Nδ-isobutyl-Nδ-(4-bromobenzenesulfonyl)-L-ornithine], the Ki was greater than 50000 nM.

In the case of `COc1ccc(S(=O)(=O)N(CC(C)C)[C@@H](CCCCNC(=O)OCC2c3ccccc3-c3ccccc32)C(=O)O)cc1` [Compound 7, Nα-Isobutyl-Nα-(4-methoxybenzenesulfonyl)-Nε-(9-fluorenylmethoxycarbonyl)-L-lysine], the Ki was found to be 10.6 nM.

With `CC(C)CN(C(CCCCNC(=O)OCc1ccccc1)C(=O)O)S(=O)(=O)c1ccc(I)cc1` (racemic) [Compound 48, Nα-Isobutyl-Nα-(4-iodobenzenesulfonyl)-Nε-benzyloxycarbonyl-DL-lysine], the Ki is greater than 100 nM.

`O=C(N[C@@H](CCCCNS(=O)(=O)c1ccc(Br)cc1)C(=O)O)c1cnc2cc(C(F)(F)F)ccc2c1O` [Compound 23, Nα-(4-hydroxy-7-trifluoromethylquinoline-3-carbonyl)-Nε-(4-bromobenzenesulfonyl)-L-lysine]: the inhibition constant (Ki) is greater than 50000 nM.

For `CC(C)CN([C@@H](CCCCNC(=O)CCc1ccccc1)C(=O)O)S(=O)(=O)c1ccc([N+](=O)[O-])cc1` [Compound 94, Nα-Isobutyl-Nα-(4-nitrobenzenesulfonyl)-Nε-dihydrocinnamoyl-L-lysine], the inhibitory constant (Ki) came to 33.9 nM.

With `CC(C)CN([C@@H](CCCCNC(=O)CCCc1ccccc1)C(=O)O)S(=O)(=O)c1ccc(N)cc1` [Compound 121, Nα-Isobutyl-Nα-(4-aminobenzenesulfonyl)-Nε-(4-phenylbutanoyl)-L-lysine], the Ki was greater than 300 nM.

Take “Nα,Nδ-di-(4-Bromobenzenesulfonyl)-Nδ-(4-fluorobenzyl)-L-ornithine [Compound 59]”: the Ki is greater than 200 nM.

Take `COC(=O)[C@H](CCCCNS(=O)(=O)c1ccc(Br)cc1)NC(=O)OCC1c2ccccc2-c2ccccc21` [Compound 15, Nα-(9-Fluorenylmethoxycarbonyl)-Nε-(4-bromobenzenesulfonyl)-L-lysine Methyl Ester]: the Ki stood at 47000 nM.

Take `CC(C)CN([C@@H](CCCCNC(=O)/C=C/c1cccnc1)C(=O)O)S(=O)(=O)c1ccc([N+](=O)[O-])cc1` [Compound 164, Nα-Isobutyl-Nα-(4-nitrobenzenesulfonyl)-Nε-(trans-3-(3-pyridyl)acryloyl)-L-lysine]: the Ki is greater than 300 nM.

As for `COc1ccc(CCC(=O)NCCCC[C@@H](C(=O)O)N(CC(C)C)S(=O)(=O)c2ccc(N)cc2)cc1` [Compound 120, Nα-Isobutyl-Nα-(4-aminobenzenesulfonyl)-Nε-(4-methoxydihydrocinnamoyl)-L-lysine], the Ki stood at 12.4 nM.

As for `Cc1ccc(S(=O)(=O)N(CC(C)C)C(CCCCNC(=O)C2c3ccccc3-c3ccccc32)C(=O)O)cc1` (centres unmarked) [Compound 83], the Ki is 105 nM.

With “Nα, Nε-diisobutyl-Nα-(4-methylbenzenesulfonyl)-Nε-(3-phenylpropanoyl)-DL-lysine [Compound 159]”, the Ki was 28000 nM.

Turning to `O=C(N[C@@H](CCCCNS(=O)(=O)c1cccc2cccnc12)C(=O)O)OCC1c2ccccc2-c2ccccc21` [Compound 28, Nε-(8-Quinolinesulfonyl)-Nα-(9-fluorenylmethoxycarbonyl)-L-lysine], the Ki is 15000 nM.

In the case of `Cc1cc(C)c(S(=O)(=O)N(CC(C)C)[C@@H](CCCCNC(=O)OCC2c3ccccc3-c3ccccc32)C(=O)O)c(C)c1` [Compound 42, Nα-Isobutyl-Nα-(2,4,6-trimethylbenzenesulfonyl)-Nε-(9-fluorenylmethoxycarbonyl)-L-lysine], the Ki was greater than 100 nM.

As to `O=C(N[C@@H](CCCCNS(=O)(=O)c1cccc(C(F)(F)F)c1)C(=O)O)OCC1c2ccccc2-c2ccccc21` [Compound 34, Nε-(3-Trifluoromethylbenzenesulfonyl)-Nα-(9-fluorenylmethoxycarbonyl)-L-lysine], the Ki worked out at 22000 nM.

`CC(C)(C)OC(=O)N[C@@H](CCCNC(=O)OCc1ccccc1)C(=O)O` [Compound 137]: the Ki is greater than 200000 nM.

Consider `O=C(NCCCC[C@H](NS(=O)(=O)c1ccc([N+](=O)[O-])cc1)C(=O)O)OCC1c2ccccc2-c2ccccc21` [Compound 103, Nα-(4-Nitrobenzenesulfonyl)-Nε-(9-fluorenylmethoxycarbonyl)-L-lysine], for which the Ki is 3300 nM.

Regarding `NC(=O)C(CCCCNS(=O)(=O)c1ccc(Br)cc1)NC(=O)OCC1c2ccccc2-c2ccccc21` [Compound 20, (2R,2S)-(9-Fluorenylmethoxycarbonylamino)-6-(4-bromobenzenesulfonylamino)-1-hexanamide], the Ki is 23000 nM.

Turning to `Cc1ccc(S(=O)(=O)N(CC(C)C)[C@@H](CCCCNC(=O)CCc2ccccc2)C(=O)O)cc1` [Compound 91], the Ki came out at 8 nM.

As to `COc1ccc(OC)c(C=CC(=O)NCCCC[C@@H](C(=O)O)N(CC(C)C)S(=O)(=O)c2ccc([N+](=O)[O-])cc2)c1` [Compound 190, Nα-Isobutyl-Nα-(4-nitrobenzenesulfonyl)-Nε-(2,5-dimethoxycinnamoyl)-L-lysine], the Ki is greater than 75 nM.

For `O=C(O)[C@H](CCCN(Cc1ccc(F)cc1)S(=O)(=O)c1ccc(Br)cc1)NS(=O)(=O)c1ccc(Br)cc1` [Compound 59, Nα,Nδ-di-(4-Bromobenzenesulfonyl)-Nδ-(4-fluorobenzyl)-L-ornithine], the inhibition constant Ki was greater than 34900 nM.

For the compound “Nα-Isobutyl-Nα-(4-methylbenzenesulfonyl)-Nε-phenoxyacetyl-L-lysine [Compound 203]”, the Ki was 16000 nM.
